What was measured:
Format in all cases: cell-based
[1] = system: human breast tissue microstructures (EpCAM+ cells); assay: RNA sequencing of EpCAM+ cells from human breast tissue microstructures stimulated ex vivo; settings: 14–18 h exposure, n = 3
Source text: Having ascertained with mammary tissue from inbred mice that androgenic and anti‐androgenic progestins have different effects on the expression of important PR target genes, we set out to assess the transcriptional response to PR signaling in the human breast epithelium. In view of our goal to perform in vivo experiments with the natural ligand progesterone, we compared the effects of progesterone to those of its stable analog R5020 which is commonly used for in vitro experiments on breast epithelial cells. For this, we used an ex vivo approach with human breast tissue similar to the mouse organoid technique used above that maintains hormone responsiveness (Tanos et al, 2013; Sflomos et al, 2015). In brief, 3 fresh mammoplasty tissue from women with follicular phase progesterone levels were cut into 1 mm^3 pieces and aliquoted for digestion with collagenase and concomitant exposure to either vehicle, R5020, or progesterone for 14–18 h. Tissue microstructures that contain epithelial cells, immune cells, and fibroblasts in varying proportions were recovered. To reduce interpatient variation as far as it relates to different ratios of various cell types, at the end of the treatment, the tissue microstructures were dissociated to single cells and enriched for epithelial cells by FACS sorting with antibodies against the epithelial cell surface marker EpCAM (Fig 2A). The EpCAM^+ cells were processed for RNA sequencing. […] Progesterone affected expression levels of 65 genes, whereas R5020 affected 112 genes, including RANKL (adj.P < 0.05) (Appendix Fig S2A). More than 90% of the progesterone‐induced gene expression changes were induced by R5020 (Fig 2C). […] R5020 induced higher‐fold changes as indicated by the estimated slope of the curve being > 1 (P < 0.0001). […]
All experiments conformed to the principles set out in the WMA Declaration of Helsinki and the Department of Health and Human Services Belmont Report. […] Human tissue samples were mechanically and enzymatically dissociated, single cells were prepared, counted, and spin infected using Lenti‐ONE CMV‐GFP(2A)Luc2 WPRE VSV, V621004001, or pR980 Luc2GFP (GEGTECH) at a multiplicity of infection of 1 at 2.500 rpm for 3 h at room temperature in 500 μl of serum‐free medium. […]
(§1) RNAseq libraries were prepared using Truseq Stranded RNA producing single‐end reads of 100 bp and sequenced on Illumina Hiseq 2500 instrument. […]
(§2) Sequencing reads were quality controlled using FastQC (v0.11.8) (Wingett & Andrews, 2018). Mouse raw reads were aligned to the mouse genome (mm9) and human raw reads to the human genome (hg19) using TopHat (v2.0.11) (Kim et al, 2013). […]

[2] = system: Rankl; assay: Rankl transcript levels by RT-PCR in mouse mammary organoids stimulated ex vivo
Experimental: (§3) Next, we stimulated mouse mammary organoids derived from several BalbC females with R5020 or different progestins (Fig 1A). […] No significant change in Rankl and Wnt4 transcript levels was detected during the first 2 h (Appendix Fig S1D). By 6 h of R5020 stimulation, Rankl and Wnt4 transcript levels increased 22.4 and 5.8‐fold over the vehicle‐treated control, respectively.
(§4) Animal experiments were performed in accordance with protocol approved by the Service de la Consommation et des Affaires vétérinaires of Canton de Vaud (VD 1865.3, VD 1865.4). NOD. Cg‐Prkdc^scid Il2rg^tm1Wjl/SzJ mice (Charles River), BalbC, and C57Bl6 breeders were purchased from Jackson Laboratories. Mammary glands were isolated from 18‐ to 35‐week‐old mice, lymph nodes removed, minced with surgical blades, and digested in DMEM/F12, 1% penicillin/streptomycin B with collagenase A 0.25 mg/ml (Roche). […] Fat was removed, and pellet containing organoids washed with phosphate‐buffered saline (PBS), resuspended 5 min in 3 ml red cell blood lysis buffer and washed twice with PBS.
(§5) Human breast microstructures and mouse organoids were homogenized in Trizol (Invitrogen). Aqueous phase containing RNA was chloroform extracted and processed with miRNeasy extraction kit (Qiagen). cDNA was synthesized using random p(dN)6 primers (Roche) and MMLV reverse transcriptase (Invitrogen). SYBR Green PCR Core Reagent System (Qiagen) was used for semi‐quantitative real time (RT‐PCR) using the following primers.

[3] = system: Wnt4; assay: Wnt4 transcript levels by RT-PCR in mouse mammary organoids stimulated ex vivo
Experimental: as §3, §4, §5

[4] = system: mouse mammary organoids; assay: RNA sequencing of mouse mammary organoids stimulated ex vivo with R5020; settings: R5020 20 nM, 6 h, n = 3
Source text: To test this hypothesis, we sought for biological readouts in physiologically relevant models. First, we recurred to using an ex vivo assay for the transcriptional response of the mouse mammary epithelium to hormones. We isolated mammary glands from several inbred adult female mice, treated them mechanically and enzymatically to generate epithelial‐enriched organoids, which remain hormone‐responsive (Ayyanan et al, 2011), and exposed them either to vehicle or to the stable progesterone mimic promegestone (R5020, 20 nM) for 6 h and performed RNA sequencing (Fig 1A). Three independent experiments were performed, and principal component analysis (PCA) grouped the samples according to treatment (Fig 1B). […] Together, these observations confirm that PR signaling is intact in this ex vivo model and that the functionally important factors, Rankl and Wnt4, are robust PR target genes in the mouse mammary epithelium.
(§6) Animal experiments were performed in accordance with protocol approved by the Service de la Consommation et des Affaires vétérinaires of Canton de Vaud (VD 1865.3, VD 1865.4). NOD. Cg‐Prkdc^scid Il2rg^tm1Wjl/SzJ mice (Charles River), BalbC, and C57Bl6 breeders were purchased from Jackson Laboratories. Mammary glands were isolated from 18‐ to 35‐week‐old mice, lymph nodes removed, minced with surgical blades, and digested in DMEM/F12, 1% penicillin/streptomycin B with collagenase A 0.25 mg/ml (Roche). Tissue was concomitantly stimulated with hormones for 1, 2, or 6 h and centrifuged at 652 g for 5 min. Fat was removed, and pellet containing organoids washed with phosphate‐buffered saline (PBS), resuspended 5 min in 3 ml red cell blood lysis buffer and washed twice with PBS.
as §1, §2

[5] = system: Rankl; assay: Rankl induction by R5020 or LNG in mouse mammary organoids co-treated with AR antagonists; settings: antagonist 100 µM, 6 h, C57Bl6-derived organoids
Experimental: (§7) Enzalutamide (100 µM) abrogated Rankl induction by R5020 (P < 0.05) but had no effect on Wnt4 induction (Fig 1H).
as §6, §5

[6] = system: Wnt4; assay: Wnt4 induction by R5020 or LNG in mouse mammary organoids co-treated with AR antagonists; settings: antagonist 100 µM, 6 h, C57Bl6-derived organoids
Experimental: as §7, §6, §5

[7] = BalbC females, 6 h of stimulation
[8] = BalbC-derived organoids, 24 h of stimulation

Structure (SMILES) | RANKL expression (variant stabilized gene expression values) [1] | WNT4 expression (variant stabilized gene expression values) [1] | Rankl transcript levels over vehicle-treated control [2, 7] [fold] | Rankl transcript induction [2, 8] [fold] | Rankl transcript induction ([2]; C57Bl/6 mice, 6 h, 20 nM) [fold] | Wnt4 transcript levels over vehicle-treated control [3, 7] [fold] | Wnt4 transcript induction [3, 8] [fold] | Wnt4 transcript induction ([3]; C57Bl/6 mice, 6 h, 20 nM) [fold] | Pgr transcripts, down-modulation (RNA sequencing) [4] [fold] | Rankl transcripts, induction over control samples (RNA sequencing) [4] [fold] | Wnt4 induction (RNA sequencing) [4] [fold] | effect of AR antagonist on Rankl induction by R5020 [5] | effect of AR antagonist on Wnt4 induction by R5020 [6]
CCC(=O)[C@@]1(C)CC[C@H]2[C@@H]3CCC4=CC(=O)CCC4=C3CC[C@@]21C [R5020, promegestone] | increased expression | increased expression | 22.4 | 83 | 10.9 | 5.8 | 26 | 4.2 | 0.2 | 10.07 | 3.1 |  | 
CC(O)(CS(=O)(=O)c1ccc(F)cc1)C(=O)Nc1ccc(C#N)c(C(F)(F)F)c1 (stereo not shown) [bicalutamide] |  |  |  |  |  |  |  |  |  |  |  | abrogated | no significant effect

From PMC8261488, “Contraceptive progestins with androgenic properties stimulate breast epithelial cell proliferation” (EMBO Molecular Medicine, 2021)
